According to patent US7807439B2, “Staphylococcus aureus-specific detection media and identifying and/or counting method using same” (Biomerieux S.A., priority 2001, dated 2010):

Columns and labels:
Assay in all cases: Experiment 7: effect of maltose on α-glucosidase activity, weak inocula
Parameters in all cases: key: 0 corresponds to a lack of activity; 0.1 corresponds to the presence of a trace of coloration; 0.5 corresponds to the presence of a very pale coloration; 1 corresponds to the presence of a clear coloration of weak intensity; 1.5 corresponds to the presence of a coloration which is intermediate between colorations 1 and 2; 2 corresponds to the presence of a true coloration of medium intensity; 2.5 corresponds to the presence of a coloration which is intermediate between colorations 2 and 3; 3 corresponds to the presence of an intense coloration; 3.5 corresponds to the presence of a coloration which is intermediate between colorations 3 and 4; 4 corresponds to the presence of a very intense coloration
[1] = test system: S. intermedius 8407075; format: cell-based, Staphylococcus intermedius; conditions: strain 6
Procedure: (§1) The maltose is solubilized in water at a concentration of, for example, 100 g/l, and then a sufficient volume to obtain the final concentrations above is added to the three molten media. The Staphylococcal strains derived from the bioMérieux internal collection were seeded onto each one of the chromogenic media on their own (closely spaced perpendicular streaks over the entire surface of the dish) using a suspension at 0.5 MacFarland diluted to 1/30000. The dishes were incubated at 37° C. for 48 hours. The colonies formed were examined visually after 18, 24 and 48 hours of incubation and the intensity of coloration of the colonies was marked. The coloration was noted and the intensity of these colorations was marked. The reading scale is the same as that used above for tables 2 and 4.

[2] = test system: S. aureus 0201035; format: cell-based, Staphylococcus aureus; conditions: strain 5
Procedure: as §1

[3] = test system: S. aureus 8507285; format: cell-based, Staphylococcus aureus; conditions: strain 4
Procedure: as §1

[4] = test system: S. aureus 8311065; format: cell-based, Staphylococcus aureus; conditions: strain 3
Procedure: as §1

[5] = test system: S. aureus 8507276; format: cell-based, Staphylococcus aureus; conditions: strain 2
Procedure: as §1

## OC[C@H]1O[C@H](O[C@H]2[C@H](O)[C@@H](O)C(O)O[C@@H]2CO)[C@H](O)[C@@H](O)[C@@H]1O (mixture of isomers) [Maltose, maltose]
[1]; 18 h, Maltose 100 mg/l
  Intensity of coloration of the colonies: 0.3
[1]; 18 h, Maltose 300 mg/l
  Intensity of coloration of the colonies: 0.3
[1]; 18 h, Maltose 400 mg/l
  Intensity of coloration of the colonies: 0.3
[1]; 24 h, Maltose 100 mg/l
  Intensity of coloration of the colonies: 0.6
[1]; 24 h, Maltose 300 mg/l
  Intensity of coloration of the colonies: 0.8
[1]; 24 h, Maltose 400 mg/l
  Intensity of coloration of the colonies: 1
[1]; >40 h, Maltose 100 mg/l
  Intensity of coloration of the colonies: 0.8
[1]; >40 h, Maltose 300 mg/l
  Intensity of coloration of the colonies: 1
[1]; >40 h, Maltose 400 mg/l
  Intensity of coloration of the colonies: 1.3
[2]; 18 h, Maltose 100 mg/l
  Intensity of coloration of the colonies: 0.3
[2]; 18 h, Maltose 300 mg/l
  Intensity of coloration of the colonies: 0.5
[2]; 18 h, Maltose 400 mg/l
  Intensity of coloration of the colonies: 0.5
[2]; 24 h, Maltose 100 mg/l
  Intensity of coloration of the colonies: 0.5
[2]; 24 h, Maltose 300 mg/l
  Intensity of coloration of the colonies: 1
[2]; 24 h, Maltose 400 mg/l
  Intensity of coloration of the colonies: 1
[2]; >40 h, Maltose 100 mg/l
  Intensity of coloration of the colonies: 0.8
[2]; >40 h, Maltose 300 mg/l
  Intensity of coloration of the colonies: 1
[2]; >40 h, Maltose 400 mg/l
  Intensity of coloration of the colonies: 1.3
[3]; 18 h, Maltose 100 mg/l
  Intensity of coloration of the colonies: 0
[3]; 18 h, Maltose 300 mg/l
  Intensity of coloration of the colonies: 0
[3]; 18 h, Maltose 400 mg/l
  Intensity of coloration of the colonies: 0
[3]; 24 h, Maltose 100 mg/l
  Intensity of coloration of the colonies: 0.3
[3]; 24 h, Maltose 300 mg/l
  Intensity of coloration of the colonies: 0.3
[3]; 24 h, Maltose 400 mg/l
  Intensity of coloration of the colonies: 0.3
[3]; >40 h, Maltose 100 mg/l
  Intensity of coloration of the colonies: 0.8
[3]; >40 h, Maltose 300 mg/l
  Intensity of coloration of the colonies: 1
[3]; >40 h, Maltose 400 mg/l
  Intensity of coloration of the colonies: 1.3
[4]; 18 h, Maltose 100 mg/l
  Intensity of coloration of the colonies: 1.3
[4]; 18 h, Maltose 300 mg/l
  Intensity of coloration of the colonies: 1.3
[4]; 18 h, Maltose 400 mg/l
  Intensity of coloration of the colonies: 1.3
[4]; 24 h, Maltose 100 mg/l
  Intensity of coloration of the colonies: 1.7
[4]; 24 h, Maltose 300 mg/l
  Intensity of coloration of the colonies: 1.7
[4]; 24 h, Maltose 400 mg/l
  Intensity of coloration of the colonies: 2
[4]; >40 h, Maltose 100 mg/l
  Intensity of coloration of the colonies: 2.7
[4]; >40 h, Maltose 300 mg/l
  Intensity of coloration of the colonies: 2.7
[4]; >40 h, Maltose 400 mg/l
  Intensity of coloration of the colonies: 2.7
[5]; 18 h, Maltose 100 mg/l
  Intensity of coloration of the colonies: 2
[5]; 18 h, Maltose 300 mg/l
  Intensity of coloration of the colonies: 2
[5]; 18 h, Maltose 400 mg/l
  Intensity of coloration of the colonies: 2
[5]; 24 h, Maltose 100 mg/l
  Intensity of coloration of the colonies: 2.7
[5]; 24 h, Maltose 300 mg/l
  Intensity of coloration of the colonies: 2.7
[5]; 24 h, Maltose 400 mg/l
  Intensity of coloration of the colonies: 2.7
[5]; >40 h, Maltose 100 mg/l
  Intensity of coloration of the colonies: 3
[5]; >40 h, Maltose 300 mg/l
  Intensity of coloration of the colonies: 3
[5]; >40 h, Maltose 400 mg/l
  Intensity of coloration of the colonies: 3
